From patent publication US12685743B2, “Methods and compositions for treating and diagnosing pancreatic cancers” (New York University, priority 2019, dated 2026)

Columns and labels:
[1] = tested on: oncogenic progression in KC mice (p48cre;LSL-KrasG12D); assay: KC mouse model of slowly progressive PDA, mycobiome ablation; assay type: in vivo; conditions: oral amphotericin B vs vehicle, killed at three months old (FIG. 3A)
Excerpt: (§1) Littermates were used as controls.

[2] = tested on: orthotopic tumors from KPC mice; assay: Orthotopic KPC tumors in MBL-null mice; assay type: in vivo, mouse; conditions: amphotericin B vs vehicle, three weeks (FIG. 8B)
Excerpt: as §1

[3] = tested on: orthotopic PDA tumors from KPC mice; conditions: for progression of orthotopic PDA (tumor weight): wild-type mice, oral antifungal vs vehicle, killed three weeks after tumor implantation (FIG. 3B, 7A)
KPC tumor cells = assay: XTT proliferation assay of KPC tumor cells; assay type: cell-based; conditions: recombinant mouse C3a 5 nM vs vehicle, serial time points (FIG. 8F)
Excerpt: as §1

[4] = tested on: orthotopic tumors from KPC mice; assay: Intratumoral injection of recombinant C3a into orthotopic KPC tumors; assay type: in vivo, mouse; conditions: single intratumoral injection 40 μg/kg on day 14, tumors collected day 21 (FIG. 4D)
Excerpt: as §1

Row | Molecule | oncogenic progression (pancreatic weight, acinar area, ADM/PanIN lesions, fibrosis) [1] | protection against tumor growth in MBL-null mice (tumor weight) [2] | effect on gemcitabine chemotherapy (tumor weight) ([3]; wild-type mice with orthotopic PDA tumors, amphotericin B combined with gemcitabine, three weeks of treatment (FIG. 3C)) | progression of orthotopic PDA (tumor weight) [3] | proliferation of KPC cells in vitro (KPC tumor cells) | growth of KPC tumors in vivo (change in tumor volume) [4]
1 | C[C@@H]1[C@H](O)[C@@H](C)/C=C/C=C/C=C/C=C/C=C/C=C/C=C/[C@H](O[C@@H]2O[C@H](C)[C@@H](O)[C@H](N)[C@@H]2O)C[C@@H]2O[C@](O)(C[C@@H](O)C[C@@H](O)[C@H](O)CC[C@@H](O)C[C@@H](O)CC(=O)O[C@H]1C)C[C@H](O)[C@H]2C(=O)O [amphotericin B] | protected the mice against oncogenic progression | did not provide protection against tumor growth | potentiated the effect of chemotherapy based on gemcitabine | protective against progression | – | –
2 | OC(Cn1cncn1)(Cn1cncn1)c1ccc(F)cc1F [fluconazole] | – | – | – | protective against progression | – | –
3 | recombinant C3a: recombinant mouse complement fragment C3a (R&D) | – | – | – | – | accelerated the proliferation of KPC cells | accelerated
